Legend:
[1] = Intrinsic clearance in rat liver microsomes at 0.2 uM in presence of NADPH generating system by LC/MS/MS method; type: ADME; conditions: read-out: CLH
[2] = biological target: Tyrosine-protein kinase JAK1 (Homo sapiens, UniProt P23458); assay: Inhibition of human JAK1 kinase domain using biotin-Lyn-substrate-2 as substrate incubated for 1 hr by ELISA method
[3] = Effective permeability of the compound at pH 7.4 by PAMPA method; type: physicochemical; conditions: read-out: Peff
[4] = Intrinsic clearance in cynomolgus monkey liver microsomes at 0.2 uM in presence of NADPH generating system by LC/MS/MS method; type: ADME, Macaca fascicularis; conditions: read-out: CLH
[5] = Intrinsic clearance in human liver microsomes at 0.2 uM in presence of NADPH generating system by LC/MS/MS method; type: ADME; conditions: read-out: CLH
[6] = Half life in Sprague-Dawley rat at 1 mg/kg, iv by LC/MS/MS method; type: ADME, organism-based; conditions: in vivo
[7] = Half life in beagle dog at 1 mg/kg, iv by LC/MS/MS method; type: ADME, organism-based, Canis lupus familiaris; conditions: in vivo
[8] = Half life in cynomolgus monkey at 1 mg/kg, iv by LC/MS/MS method; type: ADME, organism-based, Macaca fascicularis; conditions: in vivo
[9] = Volume of distribution at steady state in Sprague-Dawley rat at 1 mg/kg, iv by LC/MS/MS method; type: ADME, organism-based; conditions: in vivo, read-out: Vdss
[10] = Volume of distribution at steady state in beagle dog at 1 mg/kg, iv by LC/MS/MS method; type: ADME, organism-based, Canis lupus familiaris; conditions: in vivo, read-out: Vdss
[11] = Total clearance in Sprague-Dawley rat at 1 mg/kg, iv by LC/MS/MS method; type: ADME, organism-based; conditions: in vivo
[12] = Total clearance in beagle dog at 1 mg/kg, iv by LC/MS/MS method; type: ADME, organism-based, Canis lupus familiaris; conditions: in vivo
[13] = Total clearance in cynomolgus monkey at 1 mg/kg, iv by LC/MS/MS method; type: ADME, organism-based, Macaca fascicularis; conditions: in vivo
[14] = Cmax in cynomolgus monkey at 3 mg/kg, po by LC/MS/MS method; type: ADME, organism-based, Macaca fascicularis; design: dose 3 mg/kg, route oral; conditions: in vivo
[15] = Tmax in Sprague-Dawley rat at 3 mg/kg, po by LC/MS/MS method; type: ADME, organism-based; conditions: in vivo
[16] = Tmax in beagle dog at 3 mg/kg, po by LC/MS/MS method; type: ADME, organism-based, Canis lupus familiaris; conditions: in vivo
[17] = Tmax in cynomolgus monkey at 3 mg/kg, po by LC/MS/MS method; type: ADME, organism-based, Macaca fascicularis; conditions: in vivo
[18] = AUC (0 to 24 hrs) in Sprague-Dawley rat at 3 mg/kg, po by LC/MS/MS method; type: ADME, organism-based; design: dose 3 mg/kg, time < 24 hr, route oral; conditions: in vivo
[19] = AUC (0 to 24 hrs) in beagle dog at 3 mg/kg, po by LC/MS/MS method; type: ADME, organism-based, Canis lupus familiaris; design: time < 24 hr, dose 3 mg/kg, route oral; conditions: in vivo
[20] = AUC (0 to 24 hrs) in cynomolgus monkey at 3 mg/kg, po by LC/MS/MS method; type: ADME, organism-based, Macaca fascicularis; design: time < 24 hr, dose 3 mg/kg, route oral; conditions: in vivo
[21] = Oral bioavailability in Sprague-Dawley rat at 3 mg/kg by LC/MS/MS method; type: ADME, organism-based; conditions: in vivo
[22] = Oral bioavailability in beagle dog at 3 mg/kg by LC/MS/MS method; type: ADME, organism-based, Canis lupus familiaris; conditions: in vivo
[23] = Oral bioavailability in cynomolgus monkey at 3 mg/kg by LC/MS/MS method; type: ADME, organism-based, Macaca fascicularis; conditions: in vivo
Rattus norvegicus [24] = assay: Inhibition of allograft rejection in Lewis rat vascularized heterotopic cardiac transplantation model using ACI rat as cardiac donor assessed as mean survival time by measuring cardiac allograft function by daily palpation for 28 days at 10 mg/kg, po administered beginning on day of operation once daily for 14 consecutive days (reference value: 5 days); type: functional
Rattus norvegicus [25] = assay: Inhibition of allograft rejection in Lewis rat vascularized heterotopic cardiac transplantation model using ACI rat as cardiac donor assessed as mean survival time by measuring cardiac allograft function by daily palpation for 28 days at 20 mg/kg, po administered beginning on day of operation once daily for 14 consecutive days (reference value: 5 days); type: functional
Rattus norvegicus [26] = assay: Inhibition of allograft rejection in Lewis rat vascularized heterotopic cardiac transplantation model using ACI rat as cardiac donor assessed as mean survival time by measuring cardiac allograft function by daily palpation for 28 days at 10 and 20 mg/kg, po administered beginning on day of operation once daily for 14 consecutive days (reference value: 5 days); type: functional, organism-based
[27] = biological target: High affinity nerve growth factor receptor (Homo sapiens, UniProt P04629); assay: Inhibition of TRKA (unknown origin)
[28] = biological target: Insulin-like growth factor 1 receptor (Homo sapiens, UniProt P08069); assay: Inhibition of IGF1R (unknown origin)
[29] = biological target: Receptor tyrosine-protein kinase erbB-2 (Homo sapiens, UniProt P04626); assay: Inhibition of HER2 (unknown origin)
Ephrin type-A receptor 2 = Ephrin type-A receptor 2 (Homo sapiens, UniProt P29317); assay: Inhibition of EPHA2 (unknown origin)
[30] = biological target: Tyrosine-protein kinase Tec (Homo sapiens, UniProt P42680); assay: Inhibition of TEC (unknown origin)
[31] = biological target: Tyrosine-protein kinase BTK (Homo sapiens, UniProt Q06187); assay: Inhibition of BTK (unknown origin)
[32] = biological target: Tyrosine-protein kinase SYK (Homo sapiens, UniProt P43405); assay: Inhibition of SYK (unknown origin)
[33] = biological target: Tyrosine-protein kinase ZAP-70 (Homo sapiens, UniProt P43403); assay: Inhibition of ZAP70 (unknown origin)
[34] = biological target: Tyrosine-protein kinase ABL1 (Homo sapiens, UniProt P00519); assay: Inhibition of ABL (unknown origin)
Focal adhesion kinase 1 = Focal adhesion kinase 1 (Homo sapiens, UniProt Q05397); assay: Inhibition of FAK (unknown origin)
[35] = biological target: Calcium/calmodulin-dependent protein kinase type II subunit alpha (Homo sapiens, UniProt Q9UQM7); assay: Inhibition of CaMK2a (unknown origin)
[36] = biological target: Serine/threonine-protein kinase Chk1 (Homo sapiens, UniProt O14757); assay: Inhibition of CHK1 (unknown origin)
[37] = biological target: Rho-associated protein kinase 1 (Homo sapiens, UniProt Q13464); assay: Inhibition of ROCK1 (unknown origin)
[38] = biological target: Protein kinase C alpha type (Homo sapiens, UniProt P17252); assay: Inhibition of PKCalpha (unknown origin)
[39] = biological target: Protein kinase C theta type (Homo sapiens, UniProt Q04759); assay: Inhibition of PKCtheta (unknown origin)
[40] = biological target: Ribosomal protein S6 kinase beta-1 (Homo sapiens, UniProt P23443); assay: Inhibition of p70S6K (unknown origin)
[41] = biological target: RAC-alpha serine/threonine-protein kinase (Homo sapiens, UniProt P31749); assay: Inhibition of AKT1 (unknown origin)
[42] = biological target: Casein kinase I isoform delta (Homo sapiens, UniProt P48730); assay: Inhibition of CK1delta (unknown origin)
[43] = biological target: Dual specificity mitogen-activated protein kinase kinase 1 (Homo sapiens, UniProt Q02750); assay: Inhibition of MEK1 (unknown origin)
[44] = biological target: Interleukin-1 receptor-associated kinase 4 (Homo sapiens, UniProt Q9NWZ3); assay: Inhibition of IRAK4 (unknown origin)
[45] = biological target: Voltage-gated inwardly rectifying potassium channel KCNH2 (Homo sapiens, UniProt Q12809)
Description: Inhibition of human ERG expressed in CHOK1 cells incubated for 10 mins by Rb efflux assay

Dual specificity mitogen-activated protein kinase kinase 1, sequence (Q02750 whole entry): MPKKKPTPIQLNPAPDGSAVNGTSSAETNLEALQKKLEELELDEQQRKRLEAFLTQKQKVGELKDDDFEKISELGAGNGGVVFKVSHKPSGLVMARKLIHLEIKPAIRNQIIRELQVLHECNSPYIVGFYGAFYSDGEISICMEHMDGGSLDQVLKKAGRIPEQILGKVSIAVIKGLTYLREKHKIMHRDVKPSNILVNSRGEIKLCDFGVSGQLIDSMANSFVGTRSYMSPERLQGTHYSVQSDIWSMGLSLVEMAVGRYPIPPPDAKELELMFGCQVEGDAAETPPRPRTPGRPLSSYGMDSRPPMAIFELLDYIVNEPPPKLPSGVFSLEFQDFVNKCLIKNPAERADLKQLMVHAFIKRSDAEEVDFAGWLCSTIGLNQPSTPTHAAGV
Ephrin type-A receptor 2, sequence (P29317 whole entry): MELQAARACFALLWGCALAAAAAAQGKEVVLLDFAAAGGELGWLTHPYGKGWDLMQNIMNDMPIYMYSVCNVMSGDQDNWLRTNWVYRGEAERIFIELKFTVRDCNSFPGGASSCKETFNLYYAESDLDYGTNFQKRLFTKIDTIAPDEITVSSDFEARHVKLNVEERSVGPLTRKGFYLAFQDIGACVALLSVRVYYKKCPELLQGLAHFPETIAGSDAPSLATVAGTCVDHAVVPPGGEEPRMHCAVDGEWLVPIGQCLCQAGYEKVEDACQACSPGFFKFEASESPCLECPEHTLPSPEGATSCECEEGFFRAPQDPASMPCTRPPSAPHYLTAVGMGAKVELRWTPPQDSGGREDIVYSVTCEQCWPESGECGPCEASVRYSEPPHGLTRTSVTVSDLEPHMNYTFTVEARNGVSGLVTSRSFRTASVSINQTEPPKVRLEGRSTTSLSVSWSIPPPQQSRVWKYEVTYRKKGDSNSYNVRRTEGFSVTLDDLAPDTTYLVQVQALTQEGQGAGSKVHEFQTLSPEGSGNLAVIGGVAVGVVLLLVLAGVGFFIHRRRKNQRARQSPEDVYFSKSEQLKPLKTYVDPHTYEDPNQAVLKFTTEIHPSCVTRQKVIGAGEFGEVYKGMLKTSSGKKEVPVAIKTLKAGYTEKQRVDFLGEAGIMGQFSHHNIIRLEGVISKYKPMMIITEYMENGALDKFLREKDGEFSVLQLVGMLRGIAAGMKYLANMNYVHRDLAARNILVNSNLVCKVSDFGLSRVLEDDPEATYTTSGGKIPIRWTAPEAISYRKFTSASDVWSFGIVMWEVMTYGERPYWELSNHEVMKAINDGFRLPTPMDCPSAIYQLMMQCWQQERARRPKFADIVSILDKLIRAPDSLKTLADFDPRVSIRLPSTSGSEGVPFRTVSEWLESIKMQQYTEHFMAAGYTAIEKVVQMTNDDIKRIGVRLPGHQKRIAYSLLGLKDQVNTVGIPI
Ribosomal protein S6 kinase beta-1, sequence (P23443 whole entry): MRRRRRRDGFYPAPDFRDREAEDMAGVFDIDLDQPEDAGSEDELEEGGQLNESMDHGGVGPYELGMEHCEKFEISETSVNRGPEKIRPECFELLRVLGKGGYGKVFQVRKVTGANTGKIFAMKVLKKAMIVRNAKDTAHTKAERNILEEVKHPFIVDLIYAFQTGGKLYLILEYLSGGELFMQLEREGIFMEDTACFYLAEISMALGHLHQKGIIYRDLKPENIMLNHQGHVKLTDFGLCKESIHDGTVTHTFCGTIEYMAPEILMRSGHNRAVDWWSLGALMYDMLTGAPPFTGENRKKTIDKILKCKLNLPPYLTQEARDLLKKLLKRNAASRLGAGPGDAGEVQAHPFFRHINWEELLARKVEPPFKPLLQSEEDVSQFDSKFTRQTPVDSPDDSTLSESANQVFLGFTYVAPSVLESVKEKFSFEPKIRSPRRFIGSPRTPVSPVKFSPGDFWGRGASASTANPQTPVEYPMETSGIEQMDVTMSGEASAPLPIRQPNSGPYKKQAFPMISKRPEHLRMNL
High affinity nerve growth factor receptor, sequence (P04629 whole entry): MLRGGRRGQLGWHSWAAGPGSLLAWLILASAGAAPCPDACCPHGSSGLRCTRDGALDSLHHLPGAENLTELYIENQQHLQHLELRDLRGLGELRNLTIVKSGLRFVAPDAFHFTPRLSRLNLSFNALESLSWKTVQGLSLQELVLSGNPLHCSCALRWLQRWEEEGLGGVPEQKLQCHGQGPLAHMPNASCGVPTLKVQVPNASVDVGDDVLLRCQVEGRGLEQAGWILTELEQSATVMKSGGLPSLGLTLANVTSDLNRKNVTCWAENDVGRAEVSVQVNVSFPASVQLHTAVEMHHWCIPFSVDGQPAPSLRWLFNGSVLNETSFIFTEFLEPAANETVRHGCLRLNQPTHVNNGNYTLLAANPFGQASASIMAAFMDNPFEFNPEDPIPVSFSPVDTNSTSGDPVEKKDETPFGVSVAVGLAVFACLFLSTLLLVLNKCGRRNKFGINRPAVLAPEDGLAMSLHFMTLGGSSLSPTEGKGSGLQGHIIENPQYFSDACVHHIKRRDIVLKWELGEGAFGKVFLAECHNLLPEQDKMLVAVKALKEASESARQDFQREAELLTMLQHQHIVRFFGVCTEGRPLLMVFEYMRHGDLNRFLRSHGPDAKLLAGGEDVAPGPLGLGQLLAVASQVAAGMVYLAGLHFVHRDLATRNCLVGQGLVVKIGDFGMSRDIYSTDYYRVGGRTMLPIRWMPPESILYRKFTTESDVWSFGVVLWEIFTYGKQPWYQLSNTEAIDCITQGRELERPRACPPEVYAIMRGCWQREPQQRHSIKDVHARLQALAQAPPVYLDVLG
Tyrosine-protein kinase ABL1, sequence (P00519 whole entry): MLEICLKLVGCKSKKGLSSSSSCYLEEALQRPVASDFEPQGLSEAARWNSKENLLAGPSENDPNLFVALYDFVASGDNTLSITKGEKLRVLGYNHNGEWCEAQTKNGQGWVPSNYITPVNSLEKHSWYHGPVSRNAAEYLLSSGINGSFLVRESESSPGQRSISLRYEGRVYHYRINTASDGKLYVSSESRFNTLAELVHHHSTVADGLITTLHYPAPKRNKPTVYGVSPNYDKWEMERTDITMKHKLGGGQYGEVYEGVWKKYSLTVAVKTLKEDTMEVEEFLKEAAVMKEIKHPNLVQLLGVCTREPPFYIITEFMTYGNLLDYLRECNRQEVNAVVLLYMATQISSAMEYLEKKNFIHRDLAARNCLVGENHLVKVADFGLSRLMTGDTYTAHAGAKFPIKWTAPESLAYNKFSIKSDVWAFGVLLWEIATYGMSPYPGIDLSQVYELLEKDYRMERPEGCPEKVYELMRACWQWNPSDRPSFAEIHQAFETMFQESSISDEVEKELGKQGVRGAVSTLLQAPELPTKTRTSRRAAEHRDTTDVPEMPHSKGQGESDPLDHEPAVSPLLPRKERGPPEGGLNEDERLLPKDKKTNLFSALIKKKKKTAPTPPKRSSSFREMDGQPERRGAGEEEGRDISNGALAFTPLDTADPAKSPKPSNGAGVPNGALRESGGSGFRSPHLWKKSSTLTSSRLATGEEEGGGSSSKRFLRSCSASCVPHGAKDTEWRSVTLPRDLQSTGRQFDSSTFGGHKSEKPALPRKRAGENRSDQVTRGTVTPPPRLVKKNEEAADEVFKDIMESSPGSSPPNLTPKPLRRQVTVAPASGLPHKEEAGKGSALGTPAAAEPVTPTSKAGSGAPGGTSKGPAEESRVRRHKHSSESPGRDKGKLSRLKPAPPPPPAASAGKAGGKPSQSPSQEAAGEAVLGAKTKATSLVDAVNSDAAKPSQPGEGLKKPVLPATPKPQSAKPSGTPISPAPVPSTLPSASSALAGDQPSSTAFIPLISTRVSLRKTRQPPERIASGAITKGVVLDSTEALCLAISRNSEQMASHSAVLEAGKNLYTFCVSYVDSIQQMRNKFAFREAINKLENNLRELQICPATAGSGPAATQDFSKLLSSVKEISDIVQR
Tyrosine-protein kinase JAK1, sequence (P23458 whole entry, the tested form may be a part): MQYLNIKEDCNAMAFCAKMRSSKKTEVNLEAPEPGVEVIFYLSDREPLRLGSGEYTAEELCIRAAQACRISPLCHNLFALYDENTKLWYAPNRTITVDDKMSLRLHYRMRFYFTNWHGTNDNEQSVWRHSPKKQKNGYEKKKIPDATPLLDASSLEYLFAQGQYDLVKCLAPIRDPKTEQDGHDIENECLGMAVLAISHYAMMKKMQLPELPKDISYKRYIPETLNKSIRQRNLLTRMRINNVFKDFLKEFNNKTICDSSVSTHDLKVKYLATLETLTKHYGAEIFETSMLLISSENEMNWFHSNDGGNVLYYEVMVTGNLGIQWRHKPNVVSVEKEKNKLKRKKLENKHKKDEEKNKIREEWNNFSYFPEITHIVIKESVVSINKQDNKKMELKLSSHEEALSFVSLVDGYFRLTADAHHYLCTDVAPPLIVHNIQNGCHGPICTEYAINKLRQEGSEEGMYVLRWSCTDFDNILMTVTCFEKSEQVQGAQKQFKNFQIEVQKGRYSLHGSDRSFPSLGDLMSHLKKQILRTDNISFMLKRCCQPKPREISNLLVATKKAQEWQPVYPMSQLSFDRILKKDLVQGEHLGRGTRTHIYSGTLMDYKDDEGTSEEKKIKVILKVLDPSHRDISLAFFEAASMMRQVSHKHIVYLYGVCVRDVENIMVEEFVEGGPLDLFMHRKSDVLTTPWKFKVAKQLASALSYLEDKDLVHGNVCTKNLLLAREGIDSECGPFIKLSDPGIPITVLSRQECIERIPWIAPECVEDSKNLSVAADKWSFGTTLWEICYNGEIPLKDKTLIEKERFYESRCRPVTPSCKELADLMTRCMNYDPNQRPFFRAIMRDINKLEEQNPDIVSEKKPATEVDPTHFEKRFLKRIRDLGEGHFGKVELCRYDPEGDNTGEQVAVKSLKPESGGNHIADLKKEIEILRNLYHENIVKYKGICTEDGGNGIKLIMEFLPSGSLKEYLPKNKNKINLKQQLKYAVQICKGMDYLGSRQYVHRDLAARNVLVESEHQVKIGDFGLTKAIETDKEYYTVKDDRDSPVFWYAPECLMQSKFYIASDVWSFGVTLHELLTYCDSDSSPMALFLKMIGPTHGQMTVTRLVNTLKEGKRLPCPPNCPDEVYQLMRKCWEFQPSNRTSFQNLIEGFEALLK

N#Cc1ccc(N2CC[C@@H](Nc3c(C(N)=O)cnc4[nH]ccc34)[C@@H](F)C2)nc1
CLint scaled at 0.2 µM [1]: 27.5 mL/min/kg | IC50 [2]: 4.1 nM | Papp [3]: 9 ×10⁻⁶ cm/s | CLint scaled at 0.2 µM [4]: 9.9 mL/min/kg | CLint scaled at 0.2 µM [5]: 4.8 mL/min/kg | half-life [6]: 3 h | half-life [7]: 4.2 h | half-life [8]: 5.4 h | Vd [9]: 1.1 L/kg | Vd [10]: 1 L/kg | clearance [11]: 5.3 mL/min/kg | clearance [12]: 3 mL/min/kg | clearance [13]: 3.8 mL/min/kg | Cmax [14]: 684 ng/mL | Tmax [15]: 3.3 h | Tmax [16]: 2.7 h | Tmax [17]: 5.3 h | AUC(0-t) at 24 h [18]: 6780 ng·h/mL | AUC(0-t) at 24 h [19]: 8300 ng·h/mL | AUC(0-t) at 24 h [20]: 8690 ng·h/mL | bioavailability [21]: 70.7% | bioavailability [22]: 49.1% | bioavailability [23]: 64.3% | MST (Rattus norvegicus [24]): 11.5 days | MST (Rattus norvegicus [25]): 22 days | inhibition (Rattus norvegicus [26]): Dose-dependent effect | IC50 [27]: 470 nM | IC50 [28]: > 1000 nM | IC50 [29]: > 1000 nM | IC50 (Ephrin type-A receptor 2): > 1000 nM | IC50 [30]: > 1000 nM | IC50 [31]: > 1000 nM | IC50 [32]: > 1000 nM | IC50 [33]: > 1000 nM | IC50 [34]: > 1000 nM | IC50 (Focal adhesion kinase 1): > 1000 nM | IC50 [35]: 1000 nM | IC50 [36]: 950 nM | IC50 [37]: 190 nM | IC50 [38]: 130 nM | IC50 [39]: 320 nM | IC50 [40]: > 1000 nM | IC50 [41]: > 1000 nM | IC50 [42]: > 1000 nM | IC50 [43]: > 1000 nM | IC50 [44]: > 1000 nM | IC50 [45]: > 100000 nM

From ChEMBL document CHEMBL3593212, “Synthesis and evaluation of novel 1H-pyrrolo[2,3-b]pyridine-5-carboxamide derivatives as potent and orally efficacious immunomodulators targeting JAK3” (Bioorg Med Chem, 2015)
